Assay results taken from patent US5055470A, “Method of treatment of ischemia in brain” (Bristol-Myers Squibb Co., priority 1989, dated 1991).

Assays:
hypoxia-induced death = assay: Protection against hypoxia-induced death (1-minute exposure to 100% nitrogen atmosphere); assay type: in vivo; settings: rats
Procedure: Groups of rats received either water or drug solution in various doses given i.p. at specified times prior to a 1-minute exposure to a 100% nitrogen atmosphere. This 1-minute nitrogen exposure is lethal within 10 minutes to all animals receiving only vehicle. A 25 mg/kg treatment given 15 minutes before nitrogen exposure protected 3 of 8 animals while giving 50 mg/kg protected all animals.

[1] = tested on: NMDA-evoked release of acetylcholine, rat striatal brain tissue slices; assay: Antagonism of NMDA-evoked release of tritiated acetylcholine from striatal slices; assay type: cell-based; settings: rat striatal slices preloaded with tritiated choline; 0.5 mM NMDA; 50 μM compound
Procedure: Slices of rat striatal brain tissue were preloaded with tritiated choline and the release of tritiated acetylcholine evoked by NMDA in the presence or absence of BMY 14802 hydrochloride is measured.

In the case of `OC(CCCN1CCN(c2ncc(F)cn2)CC1)c1ccc(F)cc1` (stereo not shown) [BMY 14802, 4-[4-(5-fluoro-2-pyrimidinyl)-1-piperazinyl]-1-(4-fluorophenyl)butanol], the “animals protected from hypoxia-induced death” value (“animals protected” below) (hypoxia-induced death; 25 mg/kg i.p. 15 minutes before nitrogen exposure) is reported as 3 of 8, the “animals protected” value (hypoxia-induced death; 25 mg/kg i.p. 30 minutes before nitrogen exposure) is reported as 4 of 8 and the “animals protected” value (hypoxia-induced death; 25 mg/kg i.p. 60 minutes before nitrogen exposure) is reported as “no protection”. The “animals protected” value (hypoxia-induced death; 50 mg/kg i.p. 15 minutes before nitrogen exposure) was “all animals”, the “animals protected” value (hypoxia-induced death; 50 mg/kg i.p. 30 minutes before nitrogen exposure) was 3 of 8 and the “animals protected” value (hypoxia-induced death; 50 mg/kg i.p. 60 minutes before nitrogen exposure) was 2 of 8. For the same compound, the “attenuation of acetylcholine release evoked by NMDA” value [1] was “significant attenuation”.
